Patent US20160199349A1 (priority 2012, published 2016)
Where “and” joins values, the source holds several entries; their conditions need not be identical. Identical values can stand only once.

Columns and labels:
[1] = test system: male albino rats (Sprague Dawley); conditions: rat, in vivo, ip
rat = test: animal or person; assay type: in vivo

With `CC(C)Cc1ccc(C(C)C(=O)O)cc1` (stereo not drawn) [ibuprofen] the “ED25 (95% CI)” value [1] was 117 mg/kg and 117 (90.1-196) mg/kg, the ED50 (rat; Rattus norvegicus, ip, 0.5 h, read-out: ED50 (95% CI)) was 139 mg/kg and the “timepoint of peak effect” value (rat; rat, in vivo) was 30 min p. appl.
